Experimental data reported in patent publication US20070179060A1, “6-(Poly-substituted aryl)-4-aminopicolinates and their use as herbicides” (priority 2006, published 2007).

How the values were obtained:
[1] = tested on: lambsquarter (Chenopodium album); assay: Postemergence herbicidal activity; assay type: in vivo; conditions: post-emergent, 140 g ai/ha, after 14 days; for pest or weed control at 140 g/ha: Chenopodium album, post-emergence, 336 h, read-out: % Control CHEAL
In short: (§1)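 Compounds were applied postemergence by track sprayer delivering 187 L/ha, using a mixed organic/aqueous carrier containing crop oil concentrate and surfactant; solvent-blank sprays served as controls. Test plants were at the first to second true leaf stage after 7-21 days' greenhouse growth, were sub-irrigated after treatment, and were evaluated by probit analysis.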

[2] = tested on: redroot pigweed (Amaranthus retroflexus); assay: Postemergence herbicidal activity; assay type: in vivo; conditions: post-emergent, 140 g ai/ha, after 14 days; for pest or weed control at 140 g/ha: Amaranthus retroflexus, post-emergence, 336 h, read-out: % Control AMARE
In short: as §1

[3] = tested on: velvetleaf (Abutilon theophrasti); assay: Postemergence herbicidal activity; assay type: in vivo; conditions: post-emergent, 140 g ai/ha, after 14 days; for pest or weed control at 140 g/ha: Abutilon theophrasti, post-emergence, 336 h, read-out: % Control ABUTH
In short: as §1

Galium aparine = assay: Postemergence herbicidal activity in cereal crops; assay type: in vivo; conditions: Galium aparine, post-emergence, 480 h, post-emergent, after 20-22 days, read-out: % Control GALAP; for pest or weed control at 17.5 g/ha: 17.5 g ai/ha; for pest or weed control at 35 g/ha: 35 g ai/ha
In short: (§2)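 Spray solutions contained acetone, water, isopropanol, DMSO, Agri-dex and Triton X-77, and an overhead track sprayer delivered them at 187 L/ha. Seedlings were treated at the second or third true leaf stage and held in a greenhouse at about 18 °C day/17 °C night with sub-irrigation.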

Veronica persica = assay: Postemergence herbicidal activity in cereal crops; assay type: in vivo; conditions: Veronica persica, post-emergence, 480 h, post-emergent, after 20-22 days, read-out: % Control VERPE; for pest or weed control at 17.5 g/ha: 17.5 g ai/ha; for pest or weed control at 35 g/ha: 35 g ai/ha
In short: as §2

barley (Hordeum vulare) = assay: Postemergence herbicidal activity in cereal crops; assay type: in vivo; conditions: Hordeum, post-emergence, 480 h, crop, post-emergent, after 20-22 days, read-out: % Control HORVS; for pest or weed control at 17.5 g/ha: 17.5 g ai/ha; for pest or weed control at 35 g/ha: 35 g ai/ha
In short: as §2

Compound: COC(=O)c1nc(-c2ccc(Br)c(OC)c2F)cc(N)c1Cl [Compound 27, 4-amino-6-(4-bromo-2-fluoro-3-methoxyphenyl)-3-chloro-pyridine-2-carboxylic acid methyl ester]
- pest or weed control at 140 g/ha [1]: 100%
- pest or weed control at 140 g/ha [2]: 90%
- pest or weed control at 140 g/ha [3]: 100%
- pest or weed control at 17.5 g/ha (Galium aparine): 99%
- pest or weed control at 17.5 g/ha (Veronica persica): 50%
- pest or weed control at 17.5 g/ha (barley (Hordeum vulare)): 5%
- melting point: 164 to 165 °C

Compound: COC(=O)c1nc(-c2ccc(Cl)c(OC)c2F)cc(N)c1Cl [Compound 42, 4-Amino-3-chloro-6-(4-chloro-2-fluoro-3-methoxyphenyl)pyridine-2-carboxylic acid methyl ester]
- pest or weed control at 140 g/ha [1]: 100%
- pest or weed control at 140 g/ha [2]: 100%
- pest or weed control at 140 g/ha [3]: 100%
- pest or weed control at 17.5 g/ha (Galium aparine): 99%
- pest or weed control at 17.5 g/ha (Veronica persica): 60%
- pest or weed control at 17.5 g/ha (barley (Hordeum vulare)): 5%

Compound: COC(=O)c1nc(-c2ccc(Cl)c(OC)c2Cl)cc(N)c1Cl [Compound 44, 4-Amino-3-chloro-6-(2,4-dichloro-3-methoxyphenyl)pyridine-2-carboxylic acid methyl ester]
- pest or weed control at 140 g/ha [1]: 100%
- pest or weed control at 140 g/ha [2]: 100%
- pest or weed control at 140 g/ha [3]: 100%
- pest or weed control at 35 g/ha (Galium aparine): 65%
- pest or weed control at 35 g/ha (Veronica persica): 60%
- pest or weed control at 35 g/ha (barley (Hordeum vulare)): 5%
- melting point: 168 to 170 °C

Compound: COC(=O)c1nc(-c2c(F)cc(Cl)c(OC)c2F)cc(N)c1Cl [Compound 58, 4-Amino-3-chloro-6-(4-chloro-2,6-difluoro-3-methoxyphenyl)pyridine-2-carboxylic acid, methyl ester]
- pest or weed control at 140 g/ha [1]: 100%
- pest or weed control at 140 g/ha [2]: 100%
- pest or weed control at 140 g/ha [3]: 100%
- pest or weed control at 17.5 g/ha (Galium aparine): 100%
- pest or weed control at 17.5 g/ha (Veronica persica): 60%
- pest or weed control at 17.5 g/ha (barley (Hordeum vulare)): 0%

Compound: COC(=O)c1nc(-c2ccc(F)c(OC)c2F)cc(N)c1Cl [Compound 70, 4-Amino-3-chloro-6-(2,4-difluoro-3-methoxyphenyl)pyridine-2-carboxylic acid, methyl ester]
- pest or weed control at 140 g/ha [1]: 100%
- pest or weed control at 140 g/ha [2]: 100%
- pest or weed control at 140 g/ha [3]: 100%
- pest or weed control at 17.5 g/ha (Galium aparine): 99%
- pest or weed control at 17.5 g/ha (Veronica persica): 60%
- pest or weed control at 17.5 g/ha (barley (Hordeum vulare)): 0%

Compound: COC(=O)c1nc(-c2c(F)cc(Br)c(OC)c2F)cc(N)c1Cl [Compound 77, 4-Amino-6-(4-bromo-2,6-difluoro-3-methoxyphenyl)-3-chloropyridine-2-carboxylic acid, methyl ester]
- pest or weed control at 140 g/ha [1]: 100%
- pest or weed control at 140 g/ha [2]: 100%
- pest or weed control at 140 g/ha [3]: 100%
- pest or weed control at 17.5 g/ha (Galium aparine): 99%
- pest or weed control at 17.5 g/ha (Veronica persica): 65%
- pest or weed control at 17.5 g/ha (barley (Hordeum vulare)): 0%

Compound: COc1c(Cl)ccc(-c2cc(N)c(Cl)c(C(=O)O)n2)c1F [Compound 100, 4-Amino-3-chloro-6-(4-chloro-2-fluoro-3-methoxyphenyl)pyridine-2-carboxylic acid]
- pest or weed control at 140 g/ha [1]: 100%
- pest or weed control at 140 g/ha [2]: 100%
- pest or weed control at 140 g/ha [3]: 100%
- pest or weed control at 17.5 g/ha (Galium aparine): 90%
- pest or weed control at 17.5 g/ha (Veronica persica): 65%
- pest or weed control at 17.5 g/ha (barley (Hordeum vulare)): 5%

Compound: COc1c(Cl)ccc(-c2cc(N)c(Cl)c(C(=O)O)n2)c1Cl [Compound 103, 4-Amino-3-chloro-6-(2,4-dichloro-3-methoxyphenyl)pyridine-2-carboxylic acid]
- % Control CHEAL [1]: 100%
- % Control AMARE [2]: 100%
- % Control ABUTH [3]: 95%
- pest or weed control at 35 g/ha (Galium aparine): 60%
- pest or weed control at 35 g/ha (Veronica persica): 75%
- pest or weed control at 35 g/ha (barley (Hordeum vulare)): 0%
- melting point: 179 to 180 °C (dec.)
